{
  "source": "patent US5059679A",
  "about": "“Method of selectively sulfating peptides” (Shin-Etsu CHemical Co., Ltd., priority 1988, dated 1991)",
  "key": {"[1]": {"test_system": "blood flow in the pancreas capillary vessel", "assay": "Bioassay in anesthetized dogs: blood flow in the pancreas capillary vessel (laser-Doppler perfusion monitor)", "type": "in vivo, mongrel dogs", "method": "The synthetic hCCK-33 was concurrently subjected to the bioassay with synthetic hCCK-8 to determine the activity. The bioassay was carried out by measuring the blood flow in the pancreas capillary vessel and the protein release from pancreas using a group of four mongrel dogs anesthesized with pentobarbital. The blood flow in the pancreas capillary vessel was measured using a laser-Doppler perfusion monitor and the protein concentration in the pancreas was determined according to the method of O. H. Lowry, N. J. Rosebrough, A. L. Farr and R. J. Randall, J. Biol. Chem. 193, 265 (1951). Bolus injections of 1.0, 3.125, 6.25, 12.5, 25, 50, 100 and 200 picomoles per kg body weight of the synthetic hCCK-33 and CCK-8 were given through a femoral vein catheter each at an interval of 60 minutes. […] The increasing effect could be noted even with the lowest dose of 3.125 picomoles/kg and the highest effect was obtained with the dose of 200 picomoles/kg. […] The color intensity by the ninhydrin reaction was determined using a Shimadzu Dual Wavelength TLC Scanner Model CS-900. […] The blood flow in pancreas capillary vessel was monitored using a laser-Doppler perfusion monitor (Model LD 5000 manufactured by Seattle Model Pacific Co., Wash., U.S.A.)."}, "[2]": {"test_system": "protein release from pancreas", "assay": "Bioassay in anesthetized dogs: protein release from pancreas (Lowry method)", "type": "in vivo, mongrel dogs", "method": "The synthetic hCCK-33 was concurrently subjected to the bioassay with synthetic hCCK-8 to determine the activity. The bioassay was carried out by measuring the blood flow in the pancreas capillary vessel and the protein release from pancreas using a group of four mongrel dogs anesthesized with pentobarbital. The blood flow in the pancreas capillary vessel was measured using a laser-Doppler perfusion monitor and the protein concentration in the pancreas was determined according to the method of O. H. Lowry, N. J. Rosebrough, A. L. Farr and R. J. Randall, J. Biol. Chem. 193, 265 (1951). Bolus injections of 1.0, 3.125, 6.25, 12.5, 25, 50, 100 and 200 picomoles per kg body weight of the synthetic hCCK-33 and CCK-8 were given through a femoral vein catheter each at an interval of 60 minutes. […] The increasing effect could be noted even with the lowest dose of 3.125 picomoles/kg and the highest effect was obtained with the dose of 200 picomoles/kg. The activity of the synthetic hCCK-33 was 92% of that of the synthetic CCK-8 on the molar basis in respect of the effects on the blood flow in the pancreas capillary vessel and the protein release from pancreas. […] Since the ratio of the activity of the unsulfated hCCK-33 to the activity of CCK-8, taken as unity on the molar basis, was 0.074 in the aforementioned assay with dogs, it was concluded that an important role is played by the sulfated sites in the molecules having influences on the in vivo activity of CCKs. FIG. 6 illustrates the increase in the protein release from pancreas of an anesthetized dog in response to these 3 kinds of CCK-peptides."}, "[3]": {"test_system": "gastric juice, pepsin release and pancreas secretion", "assay": "Gastric juice, pepsin release and pancreas secretion in living rats", "type": "in vivo", "settings": "living samples of rats"}, "[4]": {"test_system": "excised gastric tissues", "assay": "Stimulation of pepsinogen secretion from excised gastric tissues of guinea pigs", "type": "cell-based"}, "[5]": {"assay": "Activity compared with swine CCK-33 (test not specified)", "settings": "conclusion drawn through CCK-8", "method": "Bolus injections of 1.0, 3.125, 6.25, 12.5, 25, 50, 100 and 200 picomoles per kg body weight of the synthetic hCCK-33 and CCK-8 were given through a femoral vein catheter each at an interval of 60 minutes. […] The increasing effect could be noted even with the lowest dose of 3.125 picomoles/kg and the highest effect was obtained with the dose of 200 picomoles/kg. The activity of the synthetic hCCK-33 was 92% of that of the synthetic CCK-8 on the molar basis in respect of the effects on the blood flow in the pancreas capillary vessel and the protein release from pancreas. […] Since the ratio of the activity of the unsulfated hCCK-33 to the activity of CCK-8, taken as unity on the molar basis, was 0.074 in the aforementioned assay with dogs, it was concluded that an important role is played by the sulfated sites in the molecules having influences on the in vivo activity of CCKs."}, "[6]": {"settings": "bolus injection through femoral vein catheter, 1.0-200 picomoles per kg"}, "[7]": {"settings": "bolus injections 1.0-200 picomoles per kg"}},
  "note": "Non-standard residues stand in square brackets, D forms with d. Residues, ends and D or L forms follow the SMILES beside them. sY = N[C@@H](Cc1ccc(OS(=O)(=O)O)cc1)C(=O)O",
  "data": [
    {"smiles": "CC[C@H](C)[C@H](NC(=O)[C@H](CCCNC(=N)N)NC(=O)[C@H](Cc1c[nH]cn1)NC(=O)[C@H](CO)NC(=O)[C@@H]1CCCN1C(=O)[C@H](CC(=O)O)NC(=O)[C@H](CC(C)C)NC(=O)[C@H](CC(N)=O)NC(=O)[C@H](CCC(N)=O)NC(=O)[C@H](CC(C)C)NC(=O)[C@H](CC(N)=O)NC(=O)[C@H](CCCCN)NC(=O)[C@@H](NC(=O)[C@@H](NC(=O)[C@H](CO)NC(=O)[C@H](CCSC)NC(=O)[C@H](CCCNC(=N)N)NC(=O)CNC(=O)[C@H](CO)NC(=O)[C@@H]1CCCN1C(=O)[C@H](C)NC(=O)[C@@H](N)CCCCN)[C@@H](C)CC)C(C)C)C(=O)N[C@@H](CO)C(=O)N[C@@H](CC(=O)O)C(=O)N[C@@H](CCCNC(=N)N)C(=O)N[C@@H](CC(=O)O)C(=O)N[C@@H](Cc1ccc(OS(=O)(=O)O)cc1)C(=O)N[C@@H](CCSC)C(=O)NCC(=O)N[C@@H](Cc1c[nH]c2ccccc12)C(=O)N[C@@H](CCSC)C(=O)N[C@@H](CC(=O)O)C(=O)N[C@@H](Cc1ccccc1)C(N)=O", "note": "[synthetic hCCK-33] (H-KAPSGRMSIVKNLQNLDPSHRISDRD[sY]MGWMDF-NH2)", "values": [
      {"measurement": "activity relative to synthetic CCK-8 on the molar basis, blood flow in the pancreas capillary vessel", "setting": "[1]; [6]", "value": 92, "unit": "%"},
      {"measurement": "pancreas blood flow, dose dependence", "setting": "[1]; [7]", "value": "increased in parallel with the dose"},
      {"measurement": "dose giving the highest effect", "setting": "[2]; bolus injection", "value": 200, "unit": "picomoles/kg"},
      {"measurement": "lowest dose at which the increasing effect could be noted", "setting": "[2]; bolus injection", "value": 3.125, "unit": "picomoles/kg"},
      {"measurement": "activity relative to synthetic CCK-8 on the molar basis, protein release from pancreas", "setting": "[2]; [6]", "value": 92, "unit": "%"},
      {"measurement": "protein release from pancreas, dose dependence", "setting": "[2]; [7]", "value": "increased in parallel with the dose"},
      {"measurement": "activity relative to CCK-8 on the molar basis, gastric juice, pepsin release and pancreas secretion", "setting": "[3]", "value": "about two to three times more active than the CCK-8"},
      {"measurement": "activity relative to CCK-8 on the molar basis, stimulation of pepsinogen secretion", "setting": "[4]", "value": "about the same as the CCK-8"},
      {"measurement": "activity compared with natural swine CCK-33", "setting": "[5]", "value": "comparable with or even higher than"}
    ]}
  ]
}
